Experiments:
Assay in all cases: relative viability (nuclei count vs DMSO), 5 days (fraction); higher = more cells survive
Entinostat + Trametinib = compound: Nc1ccccc1NC(=O)c1ccc(CNC(=O)OCc2cccnc2)cc1 [Entinostat] + CC(=O)Nc1cccc(-n2c(=O)n(C3CC3)c(=O)c3c(Nc4ccc(I)cc4F)n(C)c(=O)c(C)c32)c1 [Trametinib] (partner 0.02 µM)
Outline: (§1)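 Cells from lung cancer lines were seeded into 1536-well plates and, one day later, dosed by pin tool. Treatments were either a single drug or a fixed dose of an anchor drug with five library-drug doses (not always all listed) in √10 steps. After 5 days, nuclei were stained in a one-step fixation (final 0.05% Triton X-100, 1% formaldehyde, 1 ug/ml Hoechst) and counted on 4× images, and relative viability is the treated-to-vehicle nuclei ratio, as the median of duplicate plates.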

SGI-1776 + Navitoclax = compound: CN1CCC(CNc2ccc3ncc(-c4cccc(OC(F)(F)F)c4)n3n2)CC1 [SGI-1776] + CC1(C)CCC(c2ccc(Cl)cc2)=C(CN2CCN(c3ccc(C(=O)NS(=O)(=O)c4ccc(N[C@H](CCN5CCOCC5)CSc5ccccc5)c(S(=O)(=O)C(F)(F)F)c4)cc3)CC2)C1 [Navitoclax] (partner 0.5 µM)
Outline: as §1

SGI-1776 + Alpelisib = compound: CN1CCC(CNc2ccc3ncc(-c4cccc(OC(F)(F)F)c4)n3n2)CC1 [SGI-1776] + Cc1nc(NC(=O)N2CCC[C@H]2C(N)=O)sc1-c1ccnc(C(C)(C)C(F)(F)F)c1 [Alpelisib] (partner 2 µM)
Outline: as §1

[1] = compound: C1COCCN1C2=NC(=NC3=C2OC4=C3C=CC=N4)C5=CC(=CC=C5)NC(=O)C6=CN=C(C=C6)N + COc1cc2c(Oc3ccc(NC(=O)C4(C(=O)Nc5ccc(F)cc5)CC4)cc3F)ccnc2cc1OCCCN1CCOCC1 [Foretinib] (partner 0.25 µM)
Outline: as §1

| Cell Line | relative viability (Entinostat + Trametinib; first compound 0.02 µM) | relative viability (Entinostat + Trametinib; first compound 0.06325 µM) | relative viability (Entinostat + Trametinib; first compound 0.2 µM) | relative viability (Entinostat + Trametinib; first compound 0.6325 µM) | relative viability (Entinostat + Trametinib; first compound 2 µM) | relative viability (SGI-1776 + Navitoclax; first compound 0.08 µM) | relative viability (SGI-1776 + Navitoclax; first compound 0.8 µM) | relative viability (SGI-1776 + Navitoclax; first compound 2.53 µM) | relative viability (SGI-1776 + Navitoclax; first compound 8 µM) | relative viability (SGI-1776 + Alpelisib; first compound 0.08 µM) | relative viability (SGI-1776 + Alpelisib; first compound 0.8 µM) | relative viability (SGI-1776 + Alpelisib; first compound 2.53 µM) | relative viability (SGI-1776 + Alpelisib; first compound 8 µM) | relative viability ([1]; first compound 0.02 µM) | relative viability ([1]; first compound 0.06325 µM) | relative viability ([1]; first compound 0.2 µM) | relative viability ([1]; first compound 0.6325 µM) | relative viability ([1]; first compound 2 µM) |
| --- | --- | --- | --- | --- | --- | --- | --- | --- | --- | --- | --- | --- | --- | --- | --- | --- | --- | --- |
| NCI-H2347 | 0.254 | 0.273 | 0.218 | 0.205 | 0.222 | 0.886 | 0.787 | 0.808 | 0.673 | 1.1 | 1.07 | 1.1 | 1.01 | 1.09 | 0.962 | 0.861 | 1.07 | 0.657 |
| NCI-H2405 | 0.647 | 0.722 | 0.651 | 0.608 | 0.542 | 0.823 | 0.804 | 0.779 | 0.452 | 0.865 | 0.766 | 0.739 | 0.383 | 0.99 | 1.04 | 1.07 | 1.02 | 0.981 |
| NCI-H3122 | 0.265 | 0.259 | 0.27 | 0.208 | 0.212 | 1.01 | 1.03 | 1.03 | 1.04 | 0.707 | 0.837 | 0.868 | 0.757 | 0.991 | 0.923 | 0.883 | 1.14 | 0.807 |
| PC-3 [JPC-3] | 0.726 | 0.642 | 0.579 | 0.51 | 0.502 | 0.704 | 0.767 | 0.862 | 0.699 | 1.1 | 0.946 | 1.06 | 0.971 | 1.14 | 1.05 | 0.991 | 1.07 | 0.772 |
| PC-14 | 0.653 | 0.61 | 0.502 | 0.145 | 0.0754 | 0.97 | 1.05 | 1.04 | 0.93 | 1.12 | 0.956 | 0.976 | 0.757 | 0.965 | 1.17 | 1.04 | 0.977 | 0.755 |
| RERF-LC-KJ | 0.915 | 0.833 | 0.726 | 0.418 | 0.323 | 0.936 | 1.04 | 0.937 | 0.789 | 0.805 | 0.844 | 0.926 | 0.666 | 0.879 | 0.953 | 0.888 | 0.883 | 0.624 |
| SK-LU-1 | 0.445 | 0.617 | 0.463 | 0.361 | 0.402 | 1.27 | 1.35 | 1.01 | 0.468 | 1.02 | 1.01 | 0.816 | 0.406 | 0.826 | 0.916 | 0.83 | 0.725 | 0.557 |
| SK-MES-1 | 0.553 | 0.693 | 0.865 | 0.83 | 0.512 | 1.35 | 1.23 | 1.27 | 1.15 | 0.896 | 0.897 | 1.01 | 0.647 | 0.934 | 1.17 | 0.929 | 0.792 | 0.662 |
| SW 1573 | 0.652 | 0.722 | 0.733 | 0.554 | 0.431 | 1.1 | 0.862 | 1.15 | 0.719 | 0.666 | 0.763 | 0.906 | 0.581 | 0.931 | 1.07 | 1.09 | 0.877 | 0.688 |

— the supplement of paper PMC10307832
